In patent publication US20260116910A1, “POLYCYCLIC COMPOUNDS AND METHODS THEREOF” (HEPAITECH (BEIJING) BIOPHARMA TECHNOLOGY CO., LTD., priority 2021, published 2026):
Where two headings read alike, the source gives them in different places.

Assays:
human FXR (NR1H4) = biological target: T1, human FXR (NR1H4) (Homo sapiens, UniProt Q96RI1); assay: Human FXR (NR1H4) agonist assessment, FXRE-NanoLuc reporter in HEK293T cells; assay type: cell-based
T1 sequence (Q96RI1 1-476 isoform Q96RI1-1): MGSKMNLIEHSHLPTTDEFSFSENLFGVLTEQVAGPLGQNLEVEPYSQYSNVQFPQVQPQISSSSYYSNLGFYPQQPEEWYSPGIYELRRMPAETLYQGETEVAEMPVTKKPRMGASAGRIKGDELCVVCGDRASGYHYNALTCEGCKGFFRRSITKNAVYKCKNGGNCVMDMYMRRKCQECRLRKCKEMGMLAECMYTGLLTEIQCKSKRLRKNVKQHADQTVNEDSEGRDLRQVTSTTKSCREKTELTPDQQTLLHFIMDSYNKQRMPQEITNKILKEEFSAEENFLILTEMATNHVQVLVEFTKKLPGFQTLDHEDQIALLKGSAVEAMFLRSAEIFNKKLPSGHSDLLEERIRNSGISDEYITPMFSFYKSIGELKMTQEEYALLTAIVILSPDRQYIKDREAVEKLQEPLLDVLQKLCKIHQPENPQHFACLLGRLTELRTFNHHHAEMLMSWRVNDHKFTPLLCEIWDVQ
How it was run: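 Read-out was NanoLuc luminescence in culture medium, measured 5 min after adding coelenterazine. Cells were HEK293T stably carrying human FXR and an FXRE reporter, exposed to compound for 24 hr at 37 °C. Vehicle was 0.01% DMSO. EC50 was obtained from sigmoid fits of gradient dilutions.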

MRGPRX4 = MRGPRX4 (Homo sapiens, UniProt Q96LA9); assay: MRGPRX4 activation, Fluo-8 Ca2+ FLIPR assay in HEK293T cells stably expressing MRGPRX4; assay type: cell-based; set-up: key to MRGPRX4 activation, Average / MRGPRX4 activation, Ave.: fluorescence change dF/F0
How it was run: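 Response measured as dF/F0: 30 s baseline, then 150 s after compound addition on FLIPR Tetra, in HHBS after 40-60 min room-temperature loading with 2 μM Fluo-8 AM.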

[1] = FXR activation, HEK293T FXRE-NanoLuc reporter, 24 hr
[2] = FXR activation, HEK293T FXRE-NanoLuc reporter, 24 hr, read-out: EC50
[3] = MRGPRX4 activation, Ca2+ fluorescence, no activation in tested range reported as III, read-out: Activity (EC50 μM)

Chain of MRGPRX4 (Q96LA9 whole entry): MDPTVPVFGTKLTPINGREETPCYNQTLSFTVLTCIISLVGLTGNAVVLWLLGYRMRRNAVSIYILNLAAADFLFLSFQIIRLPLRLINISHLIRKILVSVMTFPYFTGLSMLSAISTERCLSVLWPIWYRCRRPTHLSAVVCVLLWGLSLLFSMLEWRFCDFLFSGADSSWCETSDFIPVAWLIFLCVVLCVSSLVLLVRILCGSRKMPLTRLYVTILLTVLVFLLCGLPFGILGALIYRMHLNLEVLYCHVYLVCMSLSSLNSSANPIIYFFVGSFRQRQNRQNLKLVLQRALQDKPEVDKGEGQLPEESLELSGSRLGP

SMILES	Efficacy (maximum measured induction of NanoLuc, normalized to CDCA set as 100%) (human FXR (NR1H4); [1])	EC50 (human FXR (NR1H4); [2]) [µM]	MRGPRX4 activation, Average (MRGPRX4; E3-9, Conc. (Log[M]) −4.0)	MRGPRX4 activation, Average (MRGPRX4; E3-9, Conc. (Log[M]) −4.5)	MRGPRX4 activation, Average (MRGPRX4; E3-9, Conc. (Log[M]) −5.0)	MRGPRX4 activation, Average (MRGPRX4; E3-9, Conc. (Log[M]) −5.4)	MRGPRX4 activation, Average (MRGPRX4; E3-9, Conc. (Log[M]) −5.9)	MRGPRX4 activation, Average (MRGPRX4; E3-9, Conc. (Log[M]) −6.4)	MRGPRX4 activation, Average (MRGPRX4; E3-9, Conc. (Log[M]) −6.9)	MRGPRX4 activation, Average (MRGPRX4; E3-9, Conc. (Log[M]) −7.3)	MRGPRX4 activation, Average (MRGPRX4; E3-9, Conc. (Log[M]) −7.8)	MRGPRX4 activation, Average (MRGPRX4; E3-9, Conc. (Log[M]) −8.3)	EC50 (MRGPRX4; [3]) [µM]	also measured
CC[C@H]1[C@@H](O)[C@@H]2[C@H](CC[C@]3(C)[C@@H]([C@H](C)CCNC(=O)NS(=O)(=O)c4ccc(C(C)(C)CF)cc4)CC[C@@H]23)[C@@]2(C)CCC(F)(F)C[C@@H]12 [10-1]	B (300%<efficacy <=400%)	< 1	0.025	0.016	0.021	0.018	0.019	0.016	0.018	0.016	0.008	0.010	> 100	–
CC[C@H]1[C@@H](O)[C@@H]2[C@H](CC[C@]3(C)[C@@H]([C@H](C)CCNC(=O)NS(=O)(=O)c4cc(F)ccc4F)CC[C@@H]23)[C@@]2(C)CCC(F)(F)C[C@@H]12 [10-2]	C (100%<efficacy <=300%)	< 1	0.006	0.004	0.010	0.018	0.018	0.019	0.021	0.019	0.018	0.018	> 100	–
CC[C@H]1[C@@H](O)[C@@H]2[C@H](CC[C@]3(C)[C@@H]([C@H](C)CCNC(=O)NS(=O)(=O)c4cc(F)cc(F)c4)CC[C@@H]23)[C@@]2(C)CCC(F)(F)C[C@@H]12 [10-3]	C (100%<efficacy <=300%)	< 1	0.010	0.004	0.014	0.016	0.023	0.018	0.023	0.021	0.012	0.018	> 100	–
CC[C@H]1[C@@H](O)[C@@H]2[C@H](CC[C@]3(C)[C@@H]([C@H](C)CCNC(=O)NS(=O)(=O)c4cccs4)CC[C@@H]23)[C@@]2(C)CCC(F)(F)C[C@@H]12 [10-4]	C (100%<efficacy <=300%)	< 1	−0.004	0.001	0.008	0.022	0.013	0.015	0.013	0.010	0.010	0.020	> 100	–
CC[C@H]1[C@@H](O)[C@@H]2[C@H](CC[C@]3(C)[C@@H]([C@H](C)CCN=C=S)CC[C@@H]23)[C@@]2(C)CCC(F)(F)C[C@@H]12 [11-2]	D (efficacy <=100%)	–	0.030	0.020	0.010	0.020	0.020	0.013	0.013	0.013	0.013	0.025	–	EC50 (human FXR (NR1H4)): > 10 µM; EC50 (MRGPRX4): > 100 µM
CC[C@H]1[C@@H](O)[C@@H]2[C@H](CC[C@]3(C)[C@@H]([C@H](C)CCNC(=S)NS(=O)(=O)c4cccs4)CC[C@@H]23)[C@@]2(C)CCC(F)(F)C[C@@H]12 [11-3]	–	< 1	0.003	0.010	0.015	0.015	0.015	0.008	0.010	0.015	0.018	0.051	> 100	Efficacy (maximum measured induction of NanoLuc, normalized to CDCA set as 100%) (human FXR (NR1H4)): C (key: A: efficacy >400%; B: 300%<efficacy <=400%; C: 100%<efficacy <=300%; D: efficacy <=100%)
CC[C@H]1[C@@H](O)[C@@H]2[C@H](CC[C@]3(C)[C@@H]([C@H](C)CCNC(=S)NS(=O)(=O)c4ccc(C(C)(C)CF)cc4)CC[C@@H]23)[C@@]2(C)CCC(F)(F)C[C@@H]12 [11-4]	–	< 1	0.013	0.013	0.020	0.015	0.015	0.013	0.010	0.015	0.015	0.022	> 100	Efficacy (maximum measured induction of NanoLuc, normalized to CDCA set as 100%) (human FXR (NR1H4)): B (key: A: efficacy >400%; B: 300%<efficacy <=400%; C: 100%<efficacy <=300%; D: efficacy <=100%)
[2H]C1([2H])CC[C@@]2(C)[C@@H](C1)[C@@H](CC)[C@@H](O)[C@@H]1[C@@H]2CC[C@]2(C)[C@@H]([C@H](C)CCNC(=O)NS(=O)(=O)c3ccc(C(C)(C)CF)cc3)CC[C@@H]12 [12-2]	A (efficacy >400%)	< 1	–	–	–	–	–	–	–	–	–	–	> 100	MRGPRX4 activation, Ave. (MRGPRX4; E3-7, Conc. (Log[M]) −4): 0.000; MRGPRX4 activation, Ave. (MRGPRX4; E3-7, Conc. (Log[M]) −4.5): −0.041; MRGPRX4 activation, Ave. (MRGPRX4; E3-7, Conc. (Log[M]) −5): −0.041; MRGPRX4 activation, Ave. (MRGPRX4; E3-7, Conc. (Log[M]) −5.5): −0.054; MRGPRX4 activation, Ave. (MRGPRX4; E3-7, Conc. (Log[M]) −6): −0.041; MRGPRX4 activation, Ave. (MRGPRX4; E3-7, Conc. (Log[M]) −7): −0.027
